In patent publication US9944641B2, “Isoquinolinone derivatives useful in the treatment of cancer” (PIERRE FABRE MEDICAMENT, priority 2014, dated 2018):

Legend:
FLT3-ITD = target: T1, FLT3-ITD (Homo sapiens, UniProt P36888); test: Lanthascreen TR-FRET enzymatic assay, FLT3-ITD; assay type: binding; conditions: 1 hour at 25° C., 1% DMSO, read-out: Enzymology (IC50) FLT3-ITD
T1 construct: fused on or other part: GST tag (detected with the Europium-tagged anti-GST antibody)
T1 sequence (P36888 1-993): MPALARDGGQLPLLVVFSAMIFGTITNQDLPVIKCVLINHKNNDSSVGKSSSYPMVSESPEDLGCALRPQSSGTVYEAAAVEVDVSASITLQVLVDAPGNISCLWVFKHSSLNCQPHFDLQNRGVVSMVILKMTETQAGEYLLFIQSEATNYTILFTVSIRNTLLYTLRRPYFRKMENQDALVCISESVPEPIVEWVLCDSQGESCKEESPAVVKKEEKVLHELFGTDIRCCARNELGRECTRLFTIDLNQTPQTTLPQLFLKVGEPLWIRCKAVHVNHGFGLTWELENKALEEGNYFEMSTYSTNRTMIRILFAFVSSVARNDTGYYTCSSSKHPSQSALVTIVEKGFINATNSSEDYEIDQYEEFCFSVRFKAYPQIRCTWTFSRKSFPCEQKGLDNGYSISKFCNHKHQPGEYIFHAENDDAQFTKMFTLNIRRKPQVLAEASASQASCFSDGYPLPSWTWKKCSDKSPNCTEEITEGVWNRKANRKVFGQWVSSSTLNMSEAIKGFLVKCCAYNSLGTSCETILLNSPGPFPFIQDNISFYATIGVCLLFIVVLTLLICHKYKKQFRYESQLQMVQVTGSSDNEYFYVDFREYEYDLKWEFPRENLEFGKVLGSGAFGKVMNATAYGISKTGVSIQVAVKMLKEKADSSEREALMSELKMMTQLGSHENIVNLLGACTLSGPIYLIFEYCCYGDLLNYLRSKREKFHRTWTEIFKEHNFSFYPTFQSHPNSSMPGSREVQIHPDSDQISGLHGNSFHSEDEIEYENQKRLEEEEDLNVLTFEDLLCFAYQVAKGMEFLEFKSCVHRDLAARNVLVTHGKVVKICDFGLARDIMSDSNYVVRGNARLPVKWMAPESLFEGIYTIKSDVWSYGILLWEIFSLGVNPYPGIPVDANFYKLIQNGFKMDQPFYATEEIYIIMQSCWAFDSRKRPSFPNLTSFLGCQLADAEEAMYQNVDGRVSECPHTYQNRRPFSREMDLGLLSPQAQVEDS
Description: (§1) Recombinant FLT3 (#PV3182), JAK2 (#PV4210) and JAK3 (#PV3855) enzymes were purchased from Life Technologies. FLT3-ITD (#0778-0000-1) and FLT3^D835Y (#14-610) were respectively purchased from Proquinase and Merck Millipore.
(§2) The assays were conducted in 384-well plates based on Life Technologies Lanthascreen® TR-FRET methodologies.
(§3) FLT3-ITD or FLT3^D835Y assays: 15 nM of FLT3-ITD or FLT3^D835Y, 3 nM of the 236 kinase tracker (Life Technologies #PV5592) and 6 nM of the Europium-tagged anti-GST Lanthascreen® antibody are mixed into 15 μL total volume reaction mixture.
(§4) IC50s were determined from a 8-point dose-response curve spanning a >1000 fold concentration range using a 10 mM compound solution stock into pure DMSO (Sigma #D8418). The overall DMSO concentrations of tested solutions were 1%.
(§5) IC50s were generated with the software Prism (Graphpad).

FLT3 D835Y = target: T2, FLT3 D835Y (Homo sapiens, UniProt P36888, D835Y); test: Lanthascreen TR-FRET enzymatic assay, FLT3 D835Y; assay type: binding; conditions: 1 hour at 25° C., 1% DMSO, read-out: Enzymology (IC50) FLT3 D835Y
T2 construct: purchased Merck Millipore 14-610
T2 sequence (P36888 27-993 D835Y): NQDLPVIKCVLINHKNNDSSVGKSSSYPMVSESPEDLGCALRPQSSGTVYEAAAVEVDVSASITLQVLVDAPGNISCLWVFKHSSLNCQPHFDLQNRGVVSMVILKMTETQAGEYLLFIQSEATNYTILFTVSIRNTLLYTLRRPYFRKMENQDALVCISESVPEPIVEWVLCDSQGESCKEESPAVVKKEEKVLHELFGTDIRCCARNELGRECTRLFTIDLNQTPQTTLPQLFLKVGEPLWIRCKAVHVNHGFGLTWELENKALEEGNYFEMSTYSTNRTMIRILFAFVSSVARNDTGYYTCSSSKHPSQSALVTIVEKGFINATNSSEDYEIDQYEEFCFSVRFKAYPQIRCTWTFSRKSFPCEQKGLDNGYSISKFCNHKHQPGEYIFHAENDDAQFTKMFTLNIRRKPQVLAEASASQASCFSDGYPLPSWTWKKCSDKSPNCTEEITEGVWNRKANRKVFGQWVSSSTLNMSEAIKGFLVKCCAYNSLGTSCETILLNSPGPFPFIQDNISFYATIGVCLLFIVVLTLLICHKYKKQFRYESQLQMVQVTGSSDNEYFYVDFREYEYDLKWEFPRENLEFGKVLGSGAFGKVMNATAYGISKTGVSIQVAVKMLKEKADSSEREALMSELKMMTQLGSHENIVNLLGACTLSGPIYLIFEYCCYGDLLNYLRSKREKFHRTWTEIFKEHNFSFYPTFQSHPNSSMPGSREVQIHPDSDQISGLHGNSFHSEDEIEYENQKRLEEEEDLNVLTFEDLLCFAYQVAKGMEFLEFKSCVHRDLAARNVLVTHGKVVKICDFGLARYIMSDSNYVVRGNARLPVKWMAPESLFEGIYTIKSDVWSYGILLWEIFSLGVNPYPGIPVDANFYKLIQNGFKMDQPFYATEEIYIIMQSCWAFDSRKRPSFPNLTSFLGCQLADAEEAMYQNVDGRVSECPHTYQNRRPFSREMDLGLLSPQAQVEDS
Description: as §1, §2, §3, §4, §5

`COc1cc2c(cc1N)c(=O)n(C)c1cnc(Nc3ccc(F)c(N)c3)nc21` [Compound C28, 8-amino-2-((3-amino-4-fluorophenyl)amino)-9-methoxy-5-methylpyrimido [5,4-c]isoquinolin-6(5H)-one] showed an IC50 (FLT3-ITD) of less than 25 nM and an IC50 (FLT3 D835Y) of 25 to 100 nM.

Work on `COc1cc2c(cc1N)c(=O)n(C)c1cnc(Nc3cc(N)cc(F)c3)nc21` [Compound C26, 8-amino-2-((3-amino-5-fluorophenyl)amino)-9-methoxy-5-methylpyrimido [5,4-c]isoquinolin-6(5H)-one] yielded an IC50 (FLT3-ITD) of 25 to 100 nM and an IC50 (FLT3 D835Y) of 25 to 100 nM.

In the case of `Cn1c(=O)c2cc(N)ccc2c2nc(Nc3ccc(F)c(N)c3)ncc21` [Compound C22, 8-amino-2-((3-amino-4-fluorophenyl)amino)-5-methylpyrimido[5,4-c]isoquinolin-6(5H)-one], the IC50 (FLT3-ITD) is reported as less than 25 nM and the IC50 (FLT3 D835Y) is reported as less than 25 nM.

`CN1CCN(c2ccc(Nc3ncc4c(n3)c3ccc(N)cc3c(=O)n4C)cc2)CC1` [Compound C4, 8-amino-5-methyl-2-((4-(4-methylpiperazin-1-yl)phenyl)amino)pyrimido[5,4-c]isoquinolin-6(5H)-one] gave an IC50 (FLT3-ITD) of less than 25 nM and an IC50 (FLT3 D835Y) of less than 25 nM.

Work on `CN1CCN(c2cccc(Nc3ncc4c(n3)c3ccc(N)cc3c(=O)n4C)c2)CC1` [Compound C6, 8-amino-5-methyl-2-((3-(4-methylpiperazin-1-yl)phenyl)amino)pyrimido[5,4-c]isoquinolin-6(5H)-one] yielded an IC50 (FLT3-ITD) of less than 25 nM and an IC50 (FLT3 D835Y) of less than 25 nM.

`Cn1c(=O)c2cc(N)ccc2c2nc(Nc3ccc(OCCN4CCCC4)cc3)ncc21` [Compound C34, 8-amino-5-methyl-2-((4-(2-(pyrrolidin-1-yl)ethoxy)phenyl)amino)pyrimido[5,4-c]isoquinolin-6(5H)-one] showed an IC50 (FLT3-ITD) of less than 25 nM and an IC50 (FLT3 D835Y) of less than 25 nM.

In the case of `Cn1c(=O)c2cc(N)ccc2c2nc(Nc3cccc(N)c3)ncc21` [Compound C2, 8-amino-2-((3-aminophenyl)amino)-5-methylpyrimido[5,4-c]isoquinolin-6(5H)-one], the IC50 (FLT3-ITD) is reported as less than 25 nM and the IC50 (FLT3 D835Y) is reported as less than 25 nM.

`COc1cc2c(cc1N)c(=O)n(C)c1cnc(Nc3ccc(N4CCN(C)CC4)cc3)nc21` [Compound C10, 8-amino-9-methoxy-5-methyl-2-((4-(4-methylpiperazin-1-yl)phenyl)amino) pyrimido[5,4-c]isoquinolin-6(5H)-one] gave an IC50 (FLT3-ITD) of less than 25 nM and an IC50 (FLT3 D835Y) of less than 25 nM.

Work on `COc1cc2c(cc1N)c(=O)n(C)c1cnc(Nc3ccc(OCCN4CCCC4)cc3)nc21` [Compound C42, 8-amino-9-methoxy-5-methyl-2-((4-(2-(pyrrolidin-1-yl)ethoxy)phenyl)amino) pyrimido[5,4-c]isoquinolin-6(5H)-one] yielded an IC50 (FLT3-ITD) of less than 25 nM and an IC50 (FLT3 D835Y) of less than 25 nM.
